Results taken from patent US11833185B2, “Anti-neurodegenerative therapeutic, method of manufacture, and use” (UNIVERSITY OF KENTUCKY RESEARCH FOUNDATION, priority 2017, dated 2023).
Read-outs that look alike come from different tables or passages of the source. Where no end group is shown, it is not given here.

Assays:
Alzheimer's disease = conditions: person
Parkinson's disease = conditions: person
Experimental: A person presents with current diagnosis of Parkinson's disease with motor complications and responsiveness to levodopa or dopa agonists. They are buccally administered 100 mg at every 12 hours for 180 days. At 1, 90, 180, 270 and 360 days they are tested/retested with a battery of neurological tests including Unified Parkinson's Disease Rating Scale (UPDRS), Time Tests, Hoehn and Yahr (HY) Scale, Clinical Global Impression of Severity (CGIS), Clinical Impression of Severity Index (CISI-PD), Patient Global Impression of Severity (PGIS).
A person presents with diagnosis of Parkinson's disease. They are administered peptide by intranasal spray at a dosage of 25 mg, daily for 60 days. At 1, 90, 180, 270 and 360 days they are tested/retested with a battery of neurological tests including Unified Parkinson's Disease Rating Scale (UPDRS), Time Tests, Hoehn and Yahr (HY) Scale, Clinical Global Impression of Severity (CGIS), Clinical Impression of Severity Index (CISI-PD), Patient Global Impression of Severity (PGIS).

[1] = system: striatum levels of DA, DOPAC, HVA, 5-HT, 5-HIAA, and NE; assay: Striatum neurochemistry (RP-HPLC EC) after repeated intranasal administration; format: in vivo, normal Fischer 344 rats; conditions: for Turnover ratio 5-HIAA/5-HT / Turnover ratio (HVA + DOPAC)/DA / Turnover ratio DOPAC/DA / Turnover ratio HVA/DA / 5-HT / 5 HIAA / DA / DOPAC / HVA / NE: 5 days a week for 3 weeks, combined left and right striatum, mean; for 5-HT / 5 HIAA / DA / DOPAC / HVA / NE: wet tissue weight
Experimental: (§1) Groups of 12, 3 month old Fischer 344 rats were intranasally dosed 50 microliters (4 single 12.5 microliter administrations, 2 per nare, 5 minutes between each nare administration) of either vehicle, 1.1 mg/mL, or 3.5 mg/mL of AV6403 [Leu-Ala-Pro-Ala-Glu-Asp-NH2] (SEQ ID NO: 1) once a day for 5 days a week, for 3 weeks (5 consecutive days of dosing, 2 off days, repeated total of 3 times). Following day 21, rats were euthanized and brain tissue was recovered and sections removed and weighed for neurochemical analysis by Reverse-Phase High Pressure Liquid Chromatography Electrochemical detection (RP-HPLC EC).
Dopamine [DA], its major metabolites 3,4-Dihydroxy-Phenylacetic Acid (DOPAC) and Homovanillic Acid (HVA), 5-hydroxytryptamine (5-HT, serotonin), its metabolite 5-hydroxyindoleacetic acid (5-HIAA), and norepinephrine (NE) were measured in the striatum and substantia nigra (SN) for each group. In the striatum [TABLE 1], 1.1 mg/mL dosing of AV6403 led to a 20% and 25% reduction of DA and HVA levels [FIG. 1A-FIG. 1C], respectively, resulting in an increase in dopamine turnover (22% [DOPAC/DA] and 16% [[(HVA+DOPAC)/DA]), relative to saline vehicle treated rats [FIG. 2A-FIG. 2B]. […] NE levels were reduced in the striatum with about a 36% reduction for AV6403 1.1 mg/mL dosage versus vehicle [TABLE 1].
as §1, with “1.2” for “1.1”, “3.6” for “3.5”, “AV7624 [Glu-Ala-Pro-Phe-Glu-Asp-NH2]” for “AV6403 [Leu-Ala-Pro-Ala-Glu-Asp-NH2] (SEQ ID NO: 1)”, “RP-HPLC EC.” for “Reverse-Phase High Pressure Liquid Chromatography Electrochemical detection (RP-HPLC EC).”
DA, DOPAC, HVA, 5-HT, 5-HIAA, and NE were measured in the striatum and SN for each group. In the striatum [TABLE 5], 3.6 mg/mL dosing of AV7624 led to an approximate 18%, 39%, and 30% reduction of DA, DOPAC, and HVA levels [FIG. 6A-FIG. 6C], respectively, resulting in an about 18% decrease in dopamine turnover ([DOPAC/DA] and [(HVA+DOPAC)/DA]), relative to saline vehicle treated rats [FIG. 7A-FIG. 7B]. […] NE levels were reduced in the striatum in a dose dependent manner, with about a 32% reduction for the AV7624 3.6 mg/mL dosage versus vehicle [TABLE 5]

[2] = system: substantia nigra levels of DA, DOPAC, HVA, 5-HT, 5-HIAA, and NE; assay: Substantia nigra neurochemistry (RP-HPLC EC) after repeated intranasal administration; format: in vivo, normal Fischer 344 rats; conditions: for Turnover ratio 5-HIAA/5-HT / Turnover ratio (HVA + DOPAC)/DA / Turnover ratio DOPAC/DA / Turnover ratio HVA/DA / 5-HIAA / 5-HT / DA / DOPAC / HVA / NE: 5 days a week for 3 weeks, combined left and right substantia nigra, mean; for 5-HIAA / 5-HT / DA / DOPAC / HVA / NE: wet tissue weight; for decrease of NE levels: versus vehicle treated rats
Experimental: as §1
In the SN [TABLE 3], treatment of AV6403 led to about a 13% increase in DOPAC and a 11% reduction of HVA, depending on the dosage, [FIG. 4A-FIG. 4C] resulting in an increase in dopamine turnover (20% [DOPAC/DA] for 3.5 mg/mL dosage; 23% [(HVA+DOPAC)/DA] for 1.1 mg/mL) relative to saline vehicle treated rats [FIG. 5A-FIG. 5B]. Treatment with 1.1 mg/mL AV6403 decreased 5-HT by 10% in the SN, resulting in a 16% increase in serotonin turnover [5-HIAA/5-HT] [TABLE 4]. The higher dosage (3.5 mg/mL AV6403) increased NE levels in the SN by about 23% versus vehicle treated rats, respectively [TABLE 3].
as §1, with “1.2” for “1.1”, “3.6” for “3.5”, “AV7624 [Glu-Ala-Pro-Phe-Glu-Asp-NH2]” for “AV6403 [Leu-Ala-Pro-Ala-Glu-Asp-NH2] (SEQ ID NO: 1)”, “RP-HPLC EC.” for “Reverse-Phase High Pressure Liquid Chromatography Electrochemical detection (RP-HPLC EC).”
In the SN [TABLE 7], treatment with 3.6 mg/mL AV7624 led to about a 23%, 22%, and a 6% decrease in DA, DOPAC, and HVA [FIG. 9A-FIG. 9C], relative to saline vehicle treated rats, with minor effects on dopamine turnover [FIG. 10A-FIG. 10B]. Treatment with 3.6 mg/mL AV7624 decreased 5-HT by 20% and 5-HIAA by about 18% in the SN [TABLE 7], resulting in a minor effect on serotonin turnover [TABLE 8]. NE levels in the SN were decreased (17% and 13%) by both dosages (1.2 mg/mL and 3.6 mg/mL) versus vehicle treated rats, respectively [TABLE 7].

[3] = 3.6 mg/mL intranasal, striatum, relative to saline vehicle treated rats
[4] = 3.6 mg/mL repeated intranasal, striatum
[5] = 3.6 mg/mL intranasal, SN, relative to saline vehicle treated rats

Question: With “Leucine-Glycine-Proline-Phenylalanine-Serine-Glutamate” as the substance, how does the “cognitive loss from day 1 over 360 days” value (Alzheimer's disease; mild cognitive impairment Alzheimer's disease, intranasal 5 mg once per day for 360 days) read?
Answer: minimal to no cognitive loss

Question: For “Cyclo (cys-Leucine-Glycine-Proline-Phenylalanine-Serine-Glutamate-cys [SEQ ID NO: 5]”, which “additional test loss from day 1 over 360 days” value (Parkinson's disease; buccal 100 mg every 12 hours for 180 days) is on record?
Answer: minimal to no additional test loss

Question: How did the “cognitive loss from day 1 over 360 days” value (Alzheimer's disease; Alzheimer's Disease, buccal 25 mg daily for 60 days) turn out when “D-Glutamate-Alanine-Proline-Phenylalanine-D-Alanine-Glycine-NH2 [SEQ ID NO: 7]” was run?
Answer: minimal to no cognitive loss

Question: What does the source list for “Glu-Ala-Pro-Phe-Glu-Asp-NH2 (EAPFED-NH2) [AV7624]”?
Answer: Turnover ratio 5-HIAA/5-HT ([1]; 1.2 mg/mL intranasal): 1.15; Turnover ratio (HVA + DOPAC)/DA ([1]; 1.2 mg/mL intranasal): 0.38; Turnover ratio DOPAC/DA ([1]; 1.2 mg/mL intranasal): 0.28; Turnover ratio HVA/DA ([1]; 1.2 mg/mL intranasal): 0.09; 5-HT ([1]; 1.2 mg/mL intranasal): 610 ng/g; 5 HIAA ([1]; 1.2 mg/mL intranasal): 674 ng/g; DA ([1]; 1.2 mg/mL intranasal): 13521 ng/g; DOPAC ([1]; 1.2 mg/mL intranasal): 3906 ng/g; HVA ([1]; 1.2 mg/mL intranasal): 1253 ng/g; NE ([1]; 1.2 mg/mL intranasal): 83 ng/g; Turnover ratio 5-HIAA/5-HT ([1]; 3.6 mg/mL intranasal): 1.05; Turnover ratio (HVA + DOPAC)/DA ([1]; 3.6 mg/mL intranasal): 0.33; Turnover ratio DOPAC/DA ([1]; 3.6 mg/mL intranasal): 0.24; Turnover ratio HVA/DA ([1]; 3.6 mg/mL intranasal): 0.09; 5-HT ([1]; 3.6 mg/mL intranasal): 487 ng/g; 5 HIAA ([1]; 3.6 mg/mL intranasal): 499 ng/g; DA ([1]; 3.6 mg/mL intranasal): 10762 ng/g; DOPAC ([1]; 3.6 mg/mL intranasal): 2478 ng/g; HVA ([1]; 3.6 mg/mL intranasal): 915 ng/g; NE ([1]; 3.6 mg/mL intranasal): 67 ng/g; decrease in dopamine turnover ([DOPAC/DA] and [(HVA+DOPAC)/DA]) [1, 3]: about 18%; reduction of DA levels [1, 3]: about 18%; reduction of DOPAC levels [1, 3]: ~39%; reduction of HVA levels [1, 3]: ~30%; reduction of NE levels ([1]; 3.6 mg/mL intranasal, striatum, versus vehicle): ~32%; effect on turnover [5-HIAA/5-HT] [1, 4]: small effect; reduction of 5-HIAA levels [1, 4]: ~30%; reduction of 5-HT levels [1, 4]: ~28%; effects on DA, 5-HT and their metabolites ([1]; lower dosage (1.2 mg/mL) intranasal, striatum): less robust effects; Turnover ratio 5-HIAA/5-HT ([2]; 1.2 mg/mL intranasal): 0.58; Turnover ratio (HVA + DOPAC)/DA ([2]; 1.2 mg/mL intranasal): 0.34; Turnover ratio DOPAC/DA ([2]; 1.2 mg/mL intranasal): 0.24; Turnover ratio HVA/DA ([2]; 1.2 mg/mL intranasal): 0.10; 5-HIAA ([2]; 1.2 mg/mL intranasal): 886 ng/g; 5-HT ([2]; 1.2 mg/mL intranasal): 1546 ng/g; DA ([2]; 1.2 mg/mL intranasal): 1918 ng/g; DOPAC ([2]; 1.2 mg/mL intranasal): 472 ng/g; HVA ([2]; 1.2 mg/mL intranasal): 184 ng/g; NE ([2]; 1.2 mg/mL intranasal): 727 ng/g; decrease of NE levels ([2]; 1.2 mg/mL intranasal, SN): 17%; Turnover ratio 5-HIAA/5-HT ([2]; 3.6 mg/mL intranasal): 0.57; Turnover ratio (HVA + DOPAC)/DA ([2]; 3.6 mg/mL intranasal): 0.35; Turnover ratio DOPAC/DA ([2]; 3.6 mg/mL intranasal): 0.22; Turnover ratio HVA/DA ([2]; 3.6 mg/mL intranasal): 0.13; 5-HIAA ([2]; 3.6 mg/mL intranasal): 737 ng/g; 5-HT ([2]; 3.6 mg/mL intranasal): 1251 ng/g; DA ([2]; 3.6 mg/mL intranasal): 1523 ng/g; DOPAC ([2]; 3.6 mg/mL intranasal): 376 ng/g; HVA ([2]; 3.6 mg/mL intranasal): 177 ng/g; NE ([2]; 3.6 mg/mL intranasal): 767 ng/g; decrease of 5-HIAA ([2]; 3.6 mg/mL intranasal, SN): about 18%; decrease of 5-HT ([2]; 3.6 mg/mL intranasal, SN): 20%; effect on serotonin turnover ([2]; 3.6 mg/mL intranasal, SN): minor effect; effects on dopamine turnover ([2]; 3.6 mg/mL intranasal, SN): minor effects; decrease in DA [2, 5]: ~23%; decrease in DOPAC [2, 5]: ~22%; decrease in HVA [2, 5]: ~6%; decrease of NE levels ([2]; 3.6 mg/mL intranasal, SN): 13%

Question: Which “cognitive loss from day 1 over 360 days” value (Alzheimer's disease; Alzheimer's disease, intranasal 100 mg once a week for 30 days) does the source give for “Tryptophan-D-Alanine-Proline-D-Lysine-Asparagine-NH2 [SEQ ID NO: 6]” here?
Answer: minimal to no cognitive loss

Question: With “Glutamate-deuterated Lysine-Proline-D-Phenylalanine-deuterated Leucine-NH2 [SEQ ID NO: 8]” as the substance, how does the “additional UPDRS loss from day 1 over 360 days” value (Parkinson's disease; intranasal spray 25 mg daily for 60 days) read?
Answer: minimal to no additional UPDRS loss
